Substitutions are numbered along the chain they refer to. Values belong to the molecule of their own block, whether it stands above or below them.
What was measured:
hM1 mAChR [1] = target: T1, hM1 mAChR (Homo sapiens, UniProt P11229); experiment: IP1 accumulation assay in FlpInCHO-hM1; assay type: cell-based; details: for cluster of two-point profile (change in baseline versus change in pEC50): 1 and 10 μM modulator, compared with BQCA, CHO-M1 cells; for log τB (logarithm of the operational efficacy parameter of the allosteric modulator): operational model of allosterism (eq 2); for log τB (logarithm of the operational efficacy parameter of the allosteric modulator) / log αβ (logarithm of the functional cooperativity estimate between ACh and allosteric modulator): pKB fixed to binding value; for log αβ (logarithm of the functional cooperativity estimate between ACh and allosteric modulator): operational model of allosterism
T1 sequence (P11229 1-460): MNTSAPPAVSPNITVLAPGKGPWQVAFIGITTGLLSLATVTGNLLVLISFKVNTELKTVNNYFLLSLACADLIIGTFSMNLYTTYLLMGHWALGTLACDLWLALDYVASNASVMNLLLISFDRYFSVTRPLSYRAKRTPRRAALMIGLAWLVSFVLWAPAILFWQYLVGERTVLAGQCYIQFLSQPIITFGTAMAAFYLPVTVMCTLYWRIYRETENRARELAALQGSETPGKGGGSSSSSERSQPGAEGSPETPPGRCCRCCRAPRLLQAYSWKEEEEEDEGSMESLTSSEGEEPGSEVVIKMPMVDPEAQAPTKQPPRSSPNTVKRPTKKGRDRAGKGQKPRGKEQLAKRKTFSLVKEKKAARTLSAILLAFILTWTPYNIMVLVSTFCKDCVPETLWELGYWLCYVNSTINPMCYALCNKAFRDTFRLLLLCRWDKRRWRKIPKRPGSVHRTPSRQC

hM1 mAChR [2] = target: T1, hM1 mAChR; experiment: Radioligand equilibrium binding assay
M1 mAChR = target: T2, M1 mAChR (Mus musculus, UniProt P12657); experiment: IP1 accumulation assay in mouse primary cortical neurons; assay type: cell-based; details: for log τB (logarithm of the operational efficacy estimate) / τB (antilogarithm of the operational efficacy parameter): IP1 accumulation
T2 sequence (P12657 1-460): T1 sequence (P11229 1-460) with A5V, T254S, R320K, A337G, I413V

[3] = 3H-NMS 0.5 nM, allosteric ternary complex model
[4] = mouse cortical neurons, ACh-mediated IP1 accumulation

cluster of two-point profile (change in baseline versus change in pEC50) (hM1 mAChR [1]): cluster 3
log τB (logarithm of the operational efficacy parameter of the allosteric modulator) (hM1 mAChR [1]): −0.09 ± 0.06
log αβ (logarithm of the functional cooperativity estimate between ACh and allosteric modulator) (hM1 mAChR [1]): 0.85 ± 0.16
Kb (hM1 mAChR [2]): 16.2 µM
log α (logarithm of the binding cooperativity between ACh and allosteric modulator) (hM1 mAChR [2]; [3]): 0.81 ± 0.12
SMILES: CCN(CC)C(=O)c1ccc(COc2ccccc2-c2cc(=O)n(C3CCCCC3O)cn2)cc1 (centres unmarked) [Compound 15c, N,N-Diethyl-4-((2-(1-(2-hydroxycyclohexyl)-6-oxo-1,6-dihydropyrimidin-4-yl)phenoxy)methyl)benzamide]

cluster of two-point profile (change in baseline versus change in pEC50) (hM1 mAChR [1]): cluster 1
log τB (logarithm of the operational efficacy parameter of the allosteric modulator) (hM1 mAChR [1]): 0.34 ± 0.05
log αβ (logarithm of the functional cooperativity estimate between ACh and allosteric modulator) (hM1 mAChR [1]): 1.30 ± 0.14
Kb (hM1 mAChR [2]): 2.95 µM
log α (logarithm of the binding cooperativity between ACh and allosteric modulator) (hM1 mAChR [2]; [3]): 1.14 ± 0.13
SMILES: O=c1cc(-c2ccccc2OCc2ccccc2)ncn1C1CCCCC1O (centres unmarked) [Compound 13, 6-(2-(Benzyloxy)phenyl)-3-(2-hydroxycyclohexyl)pyrimidin-4(3H)-one]

cluster of two-point profile (change in baseline versus change in pEC50) (hM1 mAChR [1]): cluster 2
SMILES: O=c1cc(-c2ccccc2OCc2ccc(-c3cn[nH]c3)cc2)ncn1C1CCCCC1O (centres unmarked) [Compound 10, 6-(2-((4-(1H-Pyrazol-4-yl)benzyl)oxy)phenyl)-3-(2-hydroxycyclohexyl)pyrimidin-4(3H)-one]

log α (logarithm of the binding cooperativity between ACh and allosteric modulator) (hM1 mAChR [2]; [3]): 1.26 ± 0.13
log αβ (logarithm of the functional cooperativity estimate) (M1 mAChR; [4]): 1.73 ± 0.34
pKB (negative logarithm of the functional binding affinity estimate for the allosteric modulator) (M1 mAChR; [4]): 4.69 ± 0.40
αβ (antilogarithm of the functional cooperativity parameter) (M1 mAChR; [4]): (54)
SMILES: COc1ccc(Cn2cc(C(=O)O)c(=O)c3ccccc32)cc1 [BQCA, reference compound]

cluster of two-point profile (change in baseline versus change in pEC50) (hM1 mAChR [1]): cluster 2
SMILES: NS(=O)(=O)c1ccc(COc2ccccc2-c2cc(=O)n(C3CCCCC3O)cn2)cc1 (centres unmarked) [Compound 9k, 4-((2-(1-(2-Hydroxycyclohexyl)-6-oxo-1,6-dihydropyrimidin-4-yl)phenoxy)methyl) benzenesulfonamide]

cluster of two-point profile (change in baseline versus change in pEC50) (hM1 mAChR [1]): cluster 2
log τB (logarithm of the operational efficacy parameter of the allosteric modulator) (hM1 mAChR [1]): 0.61 ± 0.06
log αβ (logarithm of the functional cooperativity estimate between ACh and allosteric modulator) (hM1 mAChR [1]): 1.14 ± 0.26
log α (logarithm of the binding cooperativity between ACh and allosteric modulator) (hM1 mAChR [2]; [3]): 1.11 ± 0.09
pKB (negative logarithm of the binding affinity estimate of the allosteric modulator) (hM1 mAChR [2]; [3]): 6.72 ± 0.03
SMILES: NC(=O)c1ccc(COc2ccccc2-c2cc(=O)n(C3CCCCC3O)cn2)cc1 (centres unmarked) [Compound 14b, 4-((2-(1-(2-Hydroxycyclohexyl)-6-oxo-1,6-dihydropyrimidin-4-yl)phenoxy)methyl) benzamide]

cluster of two-point profile (change in baseline versus change in pEC50) (hM1 mAChR [1]): cluster 3
SMILES: O=C(c1ccc(COc2ccccc2-c2cc(=O)n(C3CCCCC3O)cn2)cc1)N1CCCCC1 (centres unmarked) [Compound 15e, 3-(2-Hydroxycyclohexyl)-6-(2-((4-(piperidine-1-carbonyl)benzyl)-oxy)phenyl)pyrimidin-4(3H)-one]

Second part, the molecule before the results:

SMILES: CCNC(=O)c1ccc(COc2ccccc2-c2cc(=O)n(C3CCCCC3O)cn2)cc1 (centres unmarked) [Compound 15d, N-Ethyl-4-((2-(1-(2-hydroxycyclohexyl)-6-oxo-1,6-dihydropyrimidin-4-yl)phenoxy)methyl)benzamide]
cluster of two-point profile (change in baseline versus change in pEC50) (hM1 mAChR [1]): cluster 4
log τB (logarithm of the operational efficacy parameter of the allosteric modulator) (hM1 mAChR [1]): 0.79 ± 0.04
log αβ (logarithm of the functional cooperativity estimate between ACh and allosteric modulator) (hM1 mAChR [1]): 1.05 ± 0.20
Kb (hM1 mAChR [2]): 0.269 µM
log α (logarithm of the binding cooperativity between ACh and allosteric modulator) (hM1 mAChR [2]; [3]): 1.27 ± 0.13

SMILES: CN(C)C(=O)c1ccc(COc2ccccc2-c2cc(=O)n(C3CCCCC3O)cn2)cc1 (centres unmarked) [Compound 15a, 4-((2-(1-(2-Hydroxycyclohexyl)-6-oxo-1,6-dihydropyrimidin-4-yl)phenoxy)methyl)-N,N-dimethylbenzamide]
cluster of two-point profile (change in baseline versus change in pEC50) (hM1 mAChR [1]): cluster 3

SMILES: CN(C)S(=O)(=O)c1ccc(COc2ccccc2-c2cc(=O)n(C3CCCCC3O)cn2)cc1 (centres unmarked) [Compound 9l, 4-((2-(1-(2-Hydroxycyclohexyl)-6-oxo-1,6-dihydropyrimidin-4-yl)phenoxy)methyl)-N,N-dimethylbenzenesulfonamide]
cluster of two-point profile (change in baseline versus change in pEC50) (hM1 mAChR [1]): cluster 3

SMILES: Cc1ccc(COc2ccccc2-c2cc(=O)n(C3CCCCC3O)cn2)cn1 (centres unmarked) [Compound 9i, 3-(2-Hydroxycyclohexyl)-6-(2-((6-methylpyridin-3-yl)methoxy)-phenyl)pyrimidin-4(3H)-one]
log τB (logarithm of the operational efficacy parameter of the allosteric modulator) (hM1 mAChR [1]): 0.37 ± 0.05
log αβ (logarithm of the functional cooperativity estimate between ACh and allosteric modulator) (hM1 mAChR [1]): 1.24 ± 0.18
Kb (hM1 mAChR [2]): 5.5 µM
log α (logarithm of the binding cooperativity between ACh and allosteric modulator) (hM1 mAChR [2]; [3]): 1.30 ± 0.16
Kb (M1 mAChR): 3.24 µM
log αβ (logarithm of the functional cooperativity estimate) (M1 mAChR; [4]): 0.98 ± 0.11
αβ (antilogarithm of the functional cooperativity parameter) (M1 mAChR; [4]): (9.5)
log τB (logarithm of the operational efficacy estimate) (M1 mAChR; mouse cortical neurons): −0.52 ± 0.09
τB (antilogarithm of the operational efficacy parameter) (M1 mAChR; mouse cortical neurons): (0.30)

SMILES: O=C(O)c1ccc(COc2ccccc2-c2cc(=O)n(C3CCCCC3O)cn2)cc1 (centres unmarked) [Compound 14a, 4-((2-(1-(2-Hydroxycyclohexyl)-6-oxo-1,6-dihydropyrimidin-4-yl)phenoxy)methyl)benzoic acid]
cluster of two-point profile (change in baseline versus change in pEC50) (hM1 mAChR [1]): cluster 1

SMILES: Cn1cc(-c2ccc(COc3ccccc3-c3cc(=O)n(C4CCCCC4O)cn3)cc2)cn1 (centres unmarked) [Compound 2, 3-(2-Hydroxycyclohexyl)-6-(2-((4-(1-methyl-1H-pyrazol-4-yl)-benzyl)oxy)phenyl)pyrimidin-4(3H)-one]
cluster of two-point profile (change in baseline versus change in pEC50) (hM1 mAChR [1]): cluster 2
log τB (logarithm of the operational efficacy parameter of the allosteric modulator) (hM1 mAChR [1]): 0.45 ± 0.08
log αβ (logarithm of the functional cooperativity estimate between ACh and allosteric modulator) (hM1 mAChR [1]): 0.79 ± 0.38
Kb (hM1 mAChR [2]): 0.324 µM
log α (logarithm of the binding cooperativity between ACh and allosteric modulator) (hM1 mAChR [2]; [3]): 1.07 ± 0.19
Kb (M1 mAChR): 9.55 µM
log αβ (logarithm of the functional cooperativity estimate) (M1 mAChR; [4]): 2.12 ± 0.18
αβ (antilogarithm of the functional cooperativity parameter) (M1 mAChR; [4]): (132)
log τB (logarithm of the operational efficacy estimate) (M1 mAChR; mouse cortical neurons): 0.47 ± 0.13
τB (antilogarithm of the operational efficacy parameter) (M1 mAChR; mouse cortical neurons): (2.95)

SMILES: CNC(=O)c1ccc(COc2ccccc2-c2cc(=O)n(C3CCCCC3O)cn2)cc1 (centres unmarked) [Compound 15b, 4-((2-(1-(2-Hydroxycyclohexyl)-6-oxo-1,6-dihydropyrimidin-4-yl)phenoxy)methyl)-N-methylbenzamide]
cluster of two-point profile (change in baseline versus change in pEC50) (hM1 mAChR [1]): cluster 4
